From patent US20150086530A1, “DOSING REGIMENS FOR THE TREATMENT OF POMPE DISEASE” (Amicus Therapeutics, Inc., priority 2012, published 2015)

Tests used:
[1] = Safety assessment in Pompe patients (adverse events, urine Hex4, CPK, ALT/AST, muscle strength); format: in vivo, human; conditions: for Adverse event: Intensity / Adverse event: Relation to Study Drug? / Adverse event: Was Event Serious?: per adverse event
From the text: Dose escalation to the next dose level of 1-deoxynojirimycin hydrochloride may proceed following review of safety and tolerability data from the previous dose level group(s). Safety data reviewed will include adverse events (including infusion reactions), clinical laboratory tests (including creatine kinase, LDH (LDH-5), alkaline phosphatase, AST, ALT), Hex4, 12-Lead ECGs, physical examinations, muscle strength tests and vital signs.
Safety parameters will be assessed by review of changes in physical exam findings, vital signs, ECG changes over time, clinical labs, Hex4 and adverse events.
Blood samples for clinical laboratory tests (hematology, serum chemistry) and urinalyses will be collected according to the schedule in Table 1. • Hematology tests include total hemoglobin, hematocrit, erythrocyte, platelet and leukocyte counts with differential. • Coagulation (screening only) includes INR and aPTT. • Serum chemistry includes measurement of AST, ALT, alkaline phosphatase, total bilirubin, creatinine, creatine kinase, urea, glucose, calcium, sodium, potassium, magnesium, total protein, albumin, bicarbonate, LDH (LDH-5), blood urea nitrogen, chloride, and phosphate. • Urinalysis includes color, appearance, specific gravity, pH, protein, glucose, ketones, blood, leukocyte esterase, nitrite, bilirubin, urobilinogen and microscopy of sediment
Muscular strength tests, assessed by hand held dynamometer, will be conducted at Screening, Days −1 and 7 of each period and at Follow-up. Proximal and distal muscle groups will be evaluated.

GAA = GAA (Homo sapiens, UniProt P10253); experiment: Physical stability of rhGAA in neutral pH buffer (thermal denaturation, enzymatic activity); format: biochemical; design: purchased Genzyme Corporation; conditions: thermal denaturation and enzymatic activity

OC[C@H]1NC[C@H](O)[C@@H](O)[C@@H]1O [AT2220, (2R,3R,4R,5S)-2-hydroxymethyl-piperidine-3,4,5-triol]
Adverse event: Intensity ([1]; Cohort 1 (50 mg 1-DNJ-HCl)): Mild | Adverse event: Relation to Study Drug? ([1]; Cohort 1 (50 mg 1-DNJ-HCl)): Unrelated | Adverse event: Was Event Serious? ([1]; Cohort 1 (50 mg 1-DNJ-HCl)): No | ALT/AST ([1]; Cohort 1 (50 mg), 4 subjects): No drug related elevations | CPK ([1]; Cohort 1 (50 mg), 4 subjects): no drug related elevations beyond subjects' baseline values range | Muscle strength ([1]; Cohort 1 (50 mg), 4 subjects): No change between Periods 1 and 2 | SAE / drug-related AEs ([1]; Cohort 1 (50 mg), 4 subjects): No SAE or drug-related AEs | Urine Hex4 ([1]; Cohort 1 (50 mg), 4 subjects): no drug related elevations | Adverse event: Intensity ([1]; Cohort 2 (100 mg 1-DNJ-HCl)): Mild | Adverse event: Relation to Study Drug? ([1]; Cohort 2 (100 mg 1-DNJ-HCl)): Unrelated | Adverse event: Was Event Serious? ([1]; Cohort 2 (100 mg 1-DNJ-HCl)): No | ALT/AST ([1]; Cohort 2 (100 mg), 5 subjects): No drug related elevations | CPK ([1]; Cohort 2 (100 mg), 5 subjects): no drug related elevations beyond subjects' baseline range | Hex4 ([1]; Cohort 2 (100 mg), 5 subjects): no drug related elevations | Muscle strength ([1]; Cohort 2 (100 mg), 5 subjects): No change between Periods 1 and 2 | SAE / drug-related AEs ([1]; Cohort 2 (100 mg), 5 subjects): No SAE or drug-related AEs | Adverse Event ([1]; Cohort 2 (rhGAA alone, then rhGAA + 100 mg 1-DNJ-HCl), per patient): None | CPK levels ([1]; Cohorts 1 and 2): did not appreciably change from baseline | relation of reported adverse events to drug ([1]; Cohorts 1 and 2, only mild, transient adverse events reported): none of which were related to AT2220 | urine hex 4 levels ([1]; following a single dose of AT2220, Cohorts 1 and 2): either did not change from baseline, or did not show any consistent trend | tolerability ([1]; single doses co-administered with ERT, Cohorts 1-4 (50-600 mg)): well-tolerated, with no drug-related adverse events reported | safety and tolerability ([1]; single doses of 50 mg and 100 mg, patients with Pompe Disease): safe and well-tolerated | physical stability of rhGAA (GAA): significant concentration-dependent increases
